Measurements from patent publication US10710986B2, “PD-1/PD-L1 inhibitors” (Gilead Sciences, Inc., priority 2018, dated 2020).

Molecular target: PD-1/PD-L1 (Homo sapiens (Human), UniProt Q9NZQ7)
Test: PD-1/PD-L1 biochemical protein-protein interaction assay (ALPHA)
Conditions: 0.3 nM His tagged PD-L1, 2.5 nM biotinylated Fc-PD-1, 60 minutes at 25° C., read-out: IC50 PD-L1-PD1
Protocol: Binding of the protein pairs is measured using a bead based Amplified Luminescent Proximity Homogeneous Assay (ALPHA) platform. Binding of each protein pair results in proximity of the donor and acceptor beads which leads to an increase in ALPHA signal. […] Assays are performed in 25 mM Hepes (pH 7.4), 150 mM NaCl, 3.4 mM EDTA, 0.005% Tween 20, and 0.01% BSA. […] After an assay reaction time of 60 minutes at 25° C., binding was measured with addition of 20 μg/mL ALPHA assay acceptor beads (anti-His coated) and 20 µg/mL ALPHA assay donor beads (streptavidin coated). IC50 values were calculated from the fit of the dose-response curves to a four-parameter equation.

Chain of PD-1/PD-L1 (Q9NZQ7 19-238): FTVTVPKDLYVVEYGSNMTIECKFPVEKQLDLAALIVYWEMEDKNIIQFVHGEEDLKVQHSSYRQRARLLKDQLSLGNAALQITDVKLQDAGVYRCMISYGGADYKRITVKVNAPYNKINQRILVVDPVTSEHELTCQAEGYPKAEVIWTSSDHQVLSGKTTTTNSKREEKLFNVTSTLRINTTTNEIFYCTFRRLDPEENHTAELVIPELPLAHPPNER

| Structure (SMILES) | IC50 |
| --- | --- |
| COc1nc(-c2cccc(-c3cccc(-c4cnc(CN)c(OC)n4)c3Cl)c2Cl)ccc1CNC[C@@H]1CCC(=O)N1 [compound 630] | 437 pM |
| COc1nc(-c2cccc(-c3cccc(-c4cnc(CNCC5CCN(C(N)=O)C5)c(OC)n4)c3Cl)c2Cl)cnc1CNCC1CCN(C(N)=O)C1 (stereo not drawn) [compound 467] | 146 pM |
| COc1nc(-c2cccc(-c3cccc(-c4cnc([C@@H](C)N)c(OC)n4)c3Cl)c2Cl)cnc1[C@@H](C)N [compound 386] | 879 pM |
| COc1nc(-c2cccc(-c3cccc(-c4cnc(CN5C[C@@H](OC)C[C@H]5CO)c(OC)n4)c3Cl)c2Cl)cnc1CNC[C@@H]1CCC(=O)N1 [compound 224] | 393 pM |
| COC1CN(Cc2ncc(-c3cccc(-c4cccc(-c5cnc(CN6CC(OC)C6)c(N(C)C)n5)c4Cl)c3Cl)nc2N(C)C)C1 [compound 97] | 701 pM |
| COc1nc(-c2cccc(-c3cccc(-c4cnc(CN5CCCC(C(F)F)C5)c(OC)n4)c3Cl)c2Cl)cnc1CNC[C@@H]1CCC(=O)N1 (stereo partly drawn) [compound 272] | 2430 pM |
| COc1nc(-c2cccc(-c3cccc(-c4cnc(CNC[C@@H]5C[C@@H](C)C(=O)N5)c(OC)n4)c3Cl)c2Cl)cnc1CNC[C@@H]1C[C@@H](C)C(=O)N1 [compound 326] | 180 pM |
| COc1nc(-c2cccc(-c3cccc(-c4cnc(CNC5CCN(C(=O)c6ccoc6)CC5)c(OC)n4)c3Cl)c2Cl)cnc1CNC[C@@H]1CCC(=O)N1 [compound 415] | 195 pM |
| COc1nc(-c2cccc(-c3cccc(-c4cnc(CNC[C@@H]5CCC(=O)N5)c(OC)n4)c3Cl)c2Cl)cnc1CNCCc1nnc[nH]1 [compound 461] | 159 pM |
| COc1nc(-c2cccc(-c3cccc(-c4cnc(CNC[C@@H]5CCC(=O)N5)c(OC)n4)c3Cl)c2Cl)cnc1CNCC1CCN(C)C1=O (stereo partly drawn) [compound 543] | 200 pM |
| CNc1nc(-c2cccc(-c3cccc(-c4cnc(CN5CC(F)C5)c(NC)n4)c3Cl)c2Cl)cnc1CN1CC(F)C1 [compound 69] | 2620 pM |
| COc1nc(-c2cccc(-c3cccc(-c4cnc(CN5CC6(CNC(=O)C6)C5)c(OC5CC5)n4)c3Cl)c2Cl)ccc1CN1CC2(CNC(=O)C2)C1 [compound 637] | 134 pM |
| COc1nc(-c2cccc(-c3cccc(-c4cnc(CN)c(OC)n4)c3Cl)c2Cl)cnc1CN [compound 135] | 733 pM |
| COc1nc(-c2cccc(-c3cccc(-c4cnc(CN5CC6(CCC(=O)N6)C5)c(OC)n4)c3Cl)c2F)cnc1CN1CC2(CCC(=O)N2)C1 [compound 1] | 80 pM |
| COc1nc(-c2cccc(-c3cccc(-c4cnc(CN5CC[C@H](O)C5)c(OC)n4)c3Cl)c2Cl)cnc1CNC[C@@H]1CCC(=O)N1 [compound 431] | 124 pM |
| COc1nc(-c2cccc(-c3cccc(-c4cnc(CNC[C@@H]5CCC(=O)N5)c(OC)n4)c3Cl)c2Cl)ccc1CN1CC(O)C1 [compound 164] | 122 pM |
| COc1nc(-c2cccc(-c3cccc(-c4cnc(CN5CC[C@](C)(O)C5)c(OC)n4)c3Cl)c2Cl)cnc1CNC[C@@H]1CCC(=O)N1 [compound 510] | 192 pM |
| COc1nc(-c2cccc(-c3cccc(-c4cnc(CNC5CCC(F)C5)c(OC)n4)c3Cl)c2Cl)cnc1CNC[C@@H]1CCC(=O)N1 (stereo partly drawn) [compound 177] | 330 pM |
| COc1nc(-c2cccc(-c3cccc(-c4cnc(CN5CC[C@@H](O)C5)c(OC)n4)c3Cl)c2Cl)cnc1CN1CC[C@@H](O)C1 [compound 130] | 185 pM |
| COc1nc(-c2cccc(-c3cccc(-c4cnc(CNC(CO)(CO)CO)c(OC)n4)c3Cl)c2Cl)cnc1CNC[C@@H]1CCC(=O)N1 [compound 428] | 272 pM |
| COc1nc(-c2cccc(-c3cccc(-c4cnc(CNC5CCN(C(N)=O)CC5)c(OC)n4)c3Cl)c2Cl)cnc1CNC1CCN(C(N)=O)CC1 [compound 466] | 73 pM |
| COc1nc(-c2cccc(-c3cccc(-c4cnc(CN5CC[C@@H](O)C5)c(OC)n4)c3Cl)c2Cl)cnc1CNC[C@@H]1CCC(=O)N1 [compound 380] | 203 pM |
| COc1nc(-c2cccc(-c3cccc(-c4cnc(CN5CC[C@@H](OC)C5)c(OC)n4)c3Cl)c2Cl)cnc1CNC[C@@H]1CCC(=O)N1 [compound 427] | 136 pM |
| COc1nc(-c2cccc(-c3cccc(-c4cnc(CN5CCC(CO)(CO)C5)c(OC)n4)c3Cl)c2Cl)cnc1CN1CCC(CO)(CO)C1 [compound 634] | 64 pM |
| CCn1cc(CNCc2ncc(-c3cccc(-c4cccc(-c5cnc(CNC[C@@H]6CCC(=O)N6)c(OC)n5)c4Cl)c3Cl)nc2OC)nn1 [compound 32] | 187 pM |
| COc1nc(-c2cccc(-c3cccc(-c4cnc(CN5CC6(CNC(=O)C6)C5)c(OC)n4)c3Cl)c2Cl)cnc1CN1CC2(CNC(=O)C2)C1 [compound 120] | 320 pM |
| CN(C)c1nc(-c2cccc(-c3cccc(-c4cnc(CN5CC6(CNC(=O)C6)C5)c(N(C)C)n4)c3Cl)c2Cl)cnc1CN1CC2(CNC(=O)C2)C1 [compound 101] | 130 pM |

| Structure (SMILES) | IC50 |
| --- | --- |
| COc1nc(-c2cccc(-c3cccc(-c4cnc(CN5CC[C@H](C(=O)O)C5)c(OC)n4)c3Cl)c2Cl)ccc1CNC[C@@H]1CCC(=O)N1 [compound 513] | 64 pM |
| COc1nc(-c2cccc(-c3cccc(-c4cnc(CN5CC6(CC(O)C6)C5)c(OC)n4)c3Cl)c2Cl)cnc1CNC[C@@H]1CCC(=O)N1 [compound 289] | 60 pM |
| COc1nc(-c2cccc(-c3cccc(-c4cnc(CNCC(C)(C)O)c(OC)n4)c3Cl)c2Cl)cnc1CNCC(C)(C)O [compound 382] | 289 pM |
| COc1nc(-c2cccc(-c3cccc(-c4cnc(CNCC[C@H]5CNC(=O)C5)c(OC)n4)c3Cl)c2Cl)cnc1CNCC[C@H]1CNC(=O)C1 [compound 540] | 72 pM |
| COc1nc(-c2cccc(-c3cccc(-c4cnc(CNC[C@H]5C[C@H](O)C5)c(OC)n4)c3Cl)c2Cl)cnc1CNC[C@@H]1CCC(=O)N1 [compound 275] | 64 pM |
| COc1nc(-c2cccc(-c3cccc(-c4cnc(CN5CC[C@@H](OC)[C@@H](F)C5)c(OC)n4)c3Cl)c2Cl)cnc1CNC[C@@H]1CCC(=O)N1 [compound 260] | 295 pM |
| COc1nc(-c2cccc(-c3cccc(-c4cnc(CNC[C@@H]5CCC(=O)N5)c(OC)n4)c3Cl)c2Cl)cnc1CNCc1cnn(CCO)c1 [compound 26] | 60 pM |
| COc1nc(-c2cccc(-c3cccc(-c4cnc(CNC[C@@H]5CCC(=O)N5)c(OC)n4)c3Cl)c2Cl)cnc1CNCc1ncccc1O [compound 338] | 565 pM |
| COc1nc(-c2cccc(-c3cccc(-c4cnc(CN[C@H]5C[C@@H](OC)C5)c(OC)n4)c3Cl)c2Cl)cnc1CNC[C@@H]1CCC(=O)N1 [compound 365] | 70 pM |
| COc1nc(-c2cccc(-c3cccc(-c4cnc(CN(C)CC(N)=O)c(OC)n4)c3Cl)c2Cl)cnc1CNC[C@@H]1CCC(=O)N1 [compound 51] | 301 pM |
| COc1nc(-c2cccc(-c3cccc(-c4cnc(CNCC5(O)CCC5)c(OC)n4)c3Cl)c2Cl)cnc1CNC[C@@H]1CCC(=O)N1 [compound 486] | 290 pM |
| COc1nc(-c2cccc(-c3cccc(-c4cnc5c(CNC[C@H]6C[C@H](O)C6)cn(C)c5n4)c3Cl)c2Cl)cnc1CNC[C@H]1CCC(=O)N1 [compound 603] | 73 pM |
| COc1nc(-c2cccc(-c3cccc(-c4cc(C)c(CNC[C@@H]5CCC(=O)N5)c(OC)n4)c3Cl)c2Cl)cnc1CNC[C@@H]1CCC(=O)N1 [compound 628] | 64 pM |
| COc1nc(-c2cccc(-c3cc(F)cc(-c4cnc(CNC[C@@H]5CCC(=O)N5)c(OC)n4)c3Cl)c2Cl)cnc1CNC[C@@H]1CCC(=O)N1 [compound 398] | 195 pM |
| COc1nc(-c2cccc(-c3cccc(-c4cnc(CNC[C@H]5CCC(=O)N5)c(OC)n4)c3Cl)c2Cl)cnc1CNCC1CNC(=O)C1 (stereo partly drawn) [compound 196] | 170 pM |
| COc1nc(-c2cccc(-c3cccc(-c4cnc(Cn5c(C)ccc5C)c(OC)n4)c3Cl)c2Cl)cnc1CNC[C@@H]1CCC(=O)N1 [compound 352] | 4630 pM |
| COc1nc(-c2cccc(-c3cccc(-c4cnc(CN5CC[C@H](O)[C@@H](F)C5)c(OC)n4)c3Cl)c2Cl)cnc1CNC[C@@H]1CCC(=O)N1 [compound 277] | 652 pM |
| C#CC1(O)CN(Cc2ncc(-c3cccc(-c4cccc(-c5cnc(CN6CC(O)(C#C)C6)c(OC)n5)c4Cl)c3Cl)nc2OC)C1 [compound 550] | 593 pM |
| COc1nc(-c2cccc(-c3cccc(-c4cnc(CNC5CC(F)C5)c(OC)n4)c3Cl)c2Cl)cnc1CNC[C@@H]1CCC(=O)N1 (stereo partly drawn) [compound 283] | 711 pM |
| COc1nc(-c2cccc(-c3cccc(-c4cnc(CN5CC(C)(O)C5)c(OC)n4)c3Cl)c2Cl)cnc1CN1CC(O)C1 [compound 629] | 83 pM |
| COc1nc(-c2cccc(-c3cccc(-c4cnc(CN5CCC6(CC(CO)C6)C5)c(OC)n4)c3Cl)c2Cl)cnc1CNC[C@@H]1CCC(=O)N1 (stereo partly drawn) [compound 298] | 181 pM |
| COc1nc(-c2cccc(-c3cccc(-c4cnc(CNC[C@@H]5CCC(=O)N5C)c(OC)n4)c3Cl)c2Cl)cnc1CNC[C@@H]1CCC(=O)N1 [compound 303] | 256 pM |
| COc1nc(-c2cccc(-c3cccc(-c4cnc(CNC[C@@H]5CCC(=O)N5)c(OC)n4)c3Cl)c2Cl)cnc1CNCCc1cnccn1 [compound 521] | 71 pM |
| COc1nc(-c2cccc(-c3cccc(-c4cnc(CN[C@H]5C[C@H](NC(C)=O)C5)c(OC)n4)c3Cl)c2Cl)cnc1CNC[C@@H]1CCC(=O)N1 [compound 361] | 130 pM |
| CCNc1nc(-c2cccc(-c3cccc(-c4cnc(CN5CC6(CCC(=O)N6)C5)c(NCC)n4)c3Cl)c2Cl)cnc1CN1CC2(CCC(=O)N2)C1 [compound 68] | 403 pM |
| COc1nc(-c2cccc(-c3cccc(-c4cnc(CN[C@H]5C[C@@H](O)C5)c(OC)n4)c3Cl)c2Cl)cnc1CNC[C@@H]1CCC(=O)N1 [compound 343] | 126 pM |
| COc1nc(-c2cccc(-c3cccc(-c4cnc(CN(C)C)c(OC)n4)c3Cl)c2Cl)cnc1CN(C)C [compound 401] | 295 pM |
